Converted amounts (≈) assume the structure as drawn. Like-named read-outs stand apart in the source and are kept apart here. Positions of bridges follow the written chain, without caps; N, C: chain ends. Non-standard residues stand in square brackets, D forms with d. Residues, ends and D or L forms follow the SMILES beside them. *: point of attachment. Benzoyl(4-OPh) = O=C(c1ccc(Oc2ccccc2)cc1)*; Decanoyl(3R-OH) = CCCCCCC[C@@H](O)CC(=O)*; dPhe(4-NH2) = Nc1ccc(C[C@@H](N)C(=O)O)cc1; Phe(4-NH2) = Nc1ccc(C[C@H](N)C(=O)O)cc1; dDab = NCC[C@@H](N)C(=O)O; Dab = NCC[C@H](N)C(=O)O
Columns and labels:
P. aeruginosa ATCC 27853 = conditions: ATCC 27853
Experimental: (§1) Bacteria were either obtained from American Type Culture Collection (ATCC; Manassas, Va., USA) or independent academic clinical isolate collections, as listed in Table 18 below. Bacteria were cultured in Nutrient broth (NB; Bacto Laboratories, catalogue No. 234000) or Mueller Hinton broth (MHB; Bacto Laboratories, catalogue No. 211443) at 37° C. overnight with shaking (˜180 RPM). A sample of each culture was then diluted 50-fold in fresh MHB and incubated at 37° C. for 2-3 h with shaking (˜180 RPM). Compound stock solutions were prepared as 0.64 mg/mL or 2.56 mg/mL in water. The compounds, at twice the final desired concentration, were serially diluted 2-fold across the wells of 96-well plates (Polystyrene, Corning, catalogue No. 3370). Mid-log phase bacterial cultures (after 2-3 h incubation) were diluted to a final concentration of 1×10^6 colony forming units (CFU)/mL, and 50 μL was added to each well giving a final cell density of 5×10^5 and a compound concentration range of 32 μg/mL to 0.015 μg/mL (128-0.06 μg/mL against P. aeruginosa PA9704).

K. pneumoniae ATCC 13883 = conditions: ATCC 13883
Experimental: as §1

[1] = system: K. pneumoniae GN_106, PmxR; conditions: GN 106, PmxR
Experimental: as §1

A. baumannii GN_093 PmxR = conditions: GN 093 PmxR
Experimental: as §1

A. baumannii ATCC 19606 = conditions: ATCC 19606
Experimental: as §1

E. coli ATCC 25922 = conditions: ATCC 25922
Experimental: as §1

[2] = system: K. pneumoniae ATCC 700603, MDR; conditions: ATCC 700603
Experimental: as §1

[3] = system: K. pneumoniae ATCC BAA-2146, NDM-1 pos; conditions: ATCC BAA-2146
Experimental: as §1

[4] = system: P. aeruginosa GN_043, PmxR; conditions: for MIC, P. aeruginosa FADDI-PA070, PmxR: Table 5
Experimental: as §1

[5] = system: S. aureus ATCC 25923, MSSA; conditions: ATCC 25923
Experimental: as §1

[6] = system: K. pneumoniae GN_102 PmxR; conditions: GN 102 PmxR
Experimental: as §1

[7] = system: P. aeruginosa GN_105, PmxR; conditions: GN 105, PmxR
Experimental: as §1

CCCCCCC[C@@H](O)CC(=O)N[C@H](Cc1ccc(N)cc1)C(=O)N[C@H]1CCNC(=O)[C@H](CC(C)C)NC(=O)[C@H](CCN)NC(=O)[C@H](CCN)NC(=O)[C@H](CC(C)C)NC(=O)[C@@H](Cc2ccccc2)NC(=O)[C@H](CCN)NC1=O [compound 6444, 3(R)OH-nC9CO-D-4NH2Phe-cyc[L-Dab-L-Dab-D-Phe-L-Leu-L-Dab-L-Dab-L-Leu]] ({Decanoyl(3R-OH)}-[dPhe(4-NH2)][Dab][Dab][dF]L[Dab][Dab]L; lactam 2-C)
MIC, P. aeruginosa ATCC 27853 (P. aeruginosa ATCC 27853): 16 µg/mL (≈ 14.5 µM)
MIC, K. pneumoniae ATCC 13883 (K. pneumoniae ATCC 13883): 8 µg/mL (≈ 7.23 µM)
MIC K. pneumoniae GN_106, PmxR [1]: 8 µg/mL (≈ 7.23 µM)
MIC A. baumannii GN_093 PmxR (A. baumannii GN_093 PmxR): 32 µg/mL (≈ 28.9 µM)
MIC, A. baumannii ATCC 19606 (A. baumannii ATCC 19606): 32 µg/mL (≈ 28.9 µM)
MIC, E. coli ATCC 25922 (E. coli ATCC 25922): 8 µg/mL (≈ 7.23 µM)
MIC, K. pneumoniae ATCC 700603, MDR [2]: 8 µg/mL (≈ 7.23 µM)
MIC, K. pneumoniae ATCC BAA-2146, NDM-1 pos [3]: 8 µg/mL (≈ 7.23 µM)
MIC P. aeruginosa GN_043, PmxR ([4]; Table 6, polymyxin-resistant): 32 µg/mL (≈ 28.9 µM)
MIC, S. aureus ATCC 25923, MSSA [5]: >32 µg/mL
MIC K. pneumoniae GN_102 PmxR [6]: 8 µg/mL (≈ 7.23 µM)
MIC P. aeruginosa GN_105, PmxR [7]: 16 µg/mL (≈ 14.5 µM)

CCCCCCC[C@@H](O)CC(=O)N[C@H](CCN)C(=O)N[C@H]1CCNC(=O)[C@H](CC(C)C)NC(=O)[C@H](CCN)NC(=O)[C@H](CCN)NC(=O)[C@H](CC(C)C)NC(=O)[C@@H](Cc2ccccc2)NC(=O)[C@H](CCCNC(=N)N)NC1=O [compound 8634, 3(R)OH-nC9CO-D-Dab-cyc[L-Dab-L-Arg-D-Phe-L-Leu-L-Dab-L-Dab-L-Leu]] ({Decanoyl(3R-OH)}-[dDab][Dab]R[dF]L[Dab][Dab]L; lactam 2-C)
MIC, P. aeruginosa ATCC 27853 (P. aeruginosa ATCC 27853): 4 µg/mL (≈ 3.63 µM)
MIC, K. pneumoniae ATCC 13883 (K. pneumoniae ATCC 13883): 8 µg/mL (≈ 7.27 µM)
MIC, K. pneumoniae Cl 138-16347-20362, PmxR [1]: 8 µg/mL (≈ 7.27 µM)
MIC, A. baumannii Cl Ptyela 10073 4512:2, PmxR (A. baumannii GN_093 PmxR): 32 µg/mL (≈ 29.1 µM)
MIC, A. baumannii ATCC 19606 (A. baumannii ATCC 19606): 16 µg/mL (≈ 14.5 µM)
MIC, E. coli ATCC 25922 (E. coli ATCC 25922): 8 µg/mL (≈ 7.27 µM)
MIC, K. pneumoniae ATCC 700603, MDR [2]: 4 µg/mL (≈ 3.63 µM)
MIC, K. pneumoniae ATCC BAA-2146, NDM-1 pos [3]: 8 µg/mL (≈ 7.27 µM)
MIC, P. aeruginosa FADDI-PA070, PmxR ([4]; polymyxin-resistant): 2 µg/mL (≈ 1.82 µM)
MIC, S. Aureus ATCC 25923, MSSA [5]: 16 µg/mL (≈ 14.5 µM)
MIC, K. pneumoniae Cl Koprana 10065 0661:1, PmxR [6]: 4 µg/mL (≈ 3.63 µM)
MIC, P. aeruginosa PA9704, PmxR [7]: 4 µg/mL (≈ 3.63 µM)

CC(C)C[C@@H]1NC(=O)[C@H](CCN)NC(=O)[C@H](CCN)NC(=O)[C@H](CC(C)C)NC(=O)[C@@H](Cc2ccccc2)NC(=O)[C@H](CCN)NC(=O)[C@@H](NC(=O)[C@@H](CCN)NC(=O)c2ccc(Oc3ccccc3)cc2)CCNC1=O [compound 6527, Ph-4-OPhCO-D-Dab-cyc[L-Dab-L-Dab-D-Phe-L-Leu-L-Dab-L-Dab-L-Leu]] ({Benzoyl(4-OPh)}-[dDab][Dab][Dab][dF]L[Dab][Dab]L; lactam 2-C)
MIC P. aeruginosa ATCC 27853 (P. aeruginosa ATCC 27853): 2 µg/mL (≈ 1.87 µM)
MIC K. pneumoniae ATCC 13883 (K. pneumoniae ATCC 13883): 16 µg/mL (≈ 14.9 µM)
MIC K. pneumoniae GN_106, PmxR [1]: >32 µg/mL
MIC A. baumannii GN_093 PmxR (A. baumannii GN_093 PmxR): >32 µg/mL
MIC A. baumannii ATCC 19606 (A. baumannii ATCC 19606): >32 µg/mL
MIC E. coli ATCC 25922 (E. coli ATCC 25922): 2 µg/mL (≈ 1.87 µM)
MIC K. pneumoniae ATCC 700603, MDR [2]: 16 µg/mL (≈ 14.9 µM)
MIC K. pneumoniae ATCC BAA-2146, NDM-1 pos [3]: 16 µg/mL (≈ 14.9 µM)
MIC P. aeruginosa GN_043, PmxR [4]: 1 µg/mL (≈ 0.934 µM)
MIC S. aureus ATCC 25923, MSSA [5]: >32 µg/mL
MIC K. pneumoniae GN_102 PmxR [6]: 32 µg/mL (≈ 29.9 µM)
MIC P. aeruginosa GN_105, PmxR [7]: 4 µg/mL (≈ 3.74 µM)

CCCCCCC[C@@H](O)CC(=O)N[C@H](CCN)C(=O)N[C@H]1CCNC(=O)[C@H](CC(C)C)NC(=O)[C@H](CCN)NC(=O)[C@H](Cc2ccc(N)cc2)NC(=O)[C@H](CC(C)C)NC(=O)[C@@H](Cc2ccccc2)NC(=O)[C@H](CCN)NC1=O [compound 8642, 3(R)OH-nC9CO-D-Dab-cyc[L-Dab-L-DAB-D-Phe-L-Leu-L-4NH2Phe-L-Dab-L-Leu]] ({Decanoyl(3R-OH)}-[dDab][Dab][Dab][dF]L[Phe(4-NH2)][Dab]L; lactam 2-C)
MIC, P. aeruginosa ATCC 27853 (P. aeruginosa ATCC 27853): 8 µg/mL (≈ 7.23 µM)
MIC, K. pneumoniae ATCC 13883 (K. pneumoniae ATCC 13883): 4 µg/mL (≈ 3.62 µM)
MIC, K. pneumoniae Cl 138-16347-20362, PmxR [1]: 4 µg/mL (≈ 3.62 µM)
MIC, A. baumannii Cl Ptyela 10073 4512:2, PmxR (A. baumannii GN_093 PmxR): 16 µg/mL (≈ 14.5 µM)
MIC, A. baumannii ATCC 19606 (A. baumannii ATCC 19606): 8 µg/mL (≈ 7.23 µM)
MIC, E. coli ATCC 25922 (E. coli ATCC 25922): 4 µg/mL (≈ 3.62 µM)
MIC, K. pneumoniae ATCC 700603, MDR [2]: 4 µg/mL (≈ 3.62 µM)
MIC, K. pneumoniae ATCC BAA-2146, NDM-1 pos [3]: 4 µg/mL (≈ 3.62 µM)
MIC, P. aeruginosa FADDI-PA070, PmxR ([4]; polymyxin-resistant): 8 µg/mL (≈ 7.23 µM)
MIC, S. Aureus ATCC 25923, MSSA [5]: 8 µg/mL (≈ 7.23 µM)
MIC, K. pneumoniae Cl Koprana 10065 0661:1, PmxR [6]: 2 µg/mL (≈ 1.81 µM)
MIC, P. aeruginosa PA9704, PmxR [7]: 8 µg/mL (≈ 7.23 µM)
